# From a flash point compilation (Sun et al. 2020)
row,flash point,SMILES
1,60 °C,Cl[SiH](Cl)c1ccccc1 [Phenyldichlorosilane]
2,-32 °C,C[SiH](Cl)Cl [Methyldichlorosilane]
3,38 °C,C[SiH](C)c1ccccc1 [Phenyldimethylsilane]
4,86 °C,C[Si](Cl)(Cl)CCCCl [3-Chloropropylmethyldichlorosilane]
5,112 °C,C=C[Si]1(C)[Si](C)(C=C)[Si](C)(C=C)[Si]1(C)C=C (centres undefined) [Tetramethyltetravinylcyclotetrasilane]
6,22 °C,CC[Si](Cl)(Cl)Cl [Ethyltrichlorosilane]
7,-19 °C,"CN(C)[Si](C)(C)C [(N,N-Dimethylamino)trimethylsilane]"

# Remark: another data set of the same source
row,flash point,SMILES
1,109.2 °C,CCCCCCCCCCCCCC [Tetradecane]

# Remark: another data set of the same source
row,SMILES,flash point
1,"CC(C)C(C)(C)C [2,2,3-Trimethylbutane]",-26 °C
2,"CCC(C)C(C)C(C)CC (centres undefined) [3,4,5-Trimethylheptane]",31 °C

# Results, then the molecule that gave them:
row,flash point,SMILES
1,99 °C,CCCCCCCCCCCCCC [Tetradecane]
2,41 °C,CCCC(CC)C(C)CC (centres undefined) [4-Ethyl-3-methylheptane]

# Remark: another data set of the same source
row,SMILES,flash point
1,CCCCCCCCCCCCCCCCCCl [1-Chloroheptadecane],145.2 °C
2,CCCCCCCCCCC(C)Cl (centres undefined) [2-Chlorododecane],99.6 °C
3,CCCCCCCCCCCCCl [1-Chlorododecane],104.6 °C
4,"CC(C)C(C)(C)Cl [2-Chloro-2,3-dimethylbutane]",15.0 °C
5,"CC(C)(C)CCCl [1-Chloro-3,3-dimethylbutane]",19.1 °C
6,CC(C)CC(C)Cl (centres undefined) [2-Chloro-4-methylpentane],21 °C
7,CC(C)CCCl [1-Chloro-3-methylbutane],16.1 °C
8,"CC(C)CC(C)(C)Cl [2-Chloro-2,4-dimethylpentane]",29.8 °C
9,CCCCCCCCCCCCCCCl [1-Chlorotetradecane],130.1 °C
10,CCCCCC(C)Cl (centres undefined) [2-Chloroheptane],39.2 °C
11,CCCCCCCCCCCCCCCCCCCl [1-Chlorooctadecane],184.1 °C
12,CC(C)CCC(C)Cl (centres undefined) [2-Chloro-5-methylhexane],35.2 °C
13,"CC(C)(C)C(C)(C)Cl [2-Chloro-2,3,3-trimethylbutane]",24.4 °C
14,CCCCCCCCCCCl [1-Chlorodecane],83.1 °C
15,CCC(C)CCCCCl (centres undefined) [1-Chloro-5-methylheptane],52.6 °C

# Further lines, results first:
row,flash point,SMILES
1,60.0 °C,CCCCC(Cl)(CC)CC [3-Chloro-3-ethylheptane]
2,60.0 °C,CCCCCC(C)(Cl)CC (centres undefined) [3-Chloro-3-methyloctane]
3,69 °C,"CCC(C)(Cl)CCCC(C)C (centres undefined) [6-Chloro-2,6-dimethyloctane]"
4,21 °C,CCC(Cl)C(C)C (centres undefined) [3-Chloro-2-methylpentane]
5,33.6 °C,CCCC(C)(Cl)CC (centres undefined) [3-Chloro-3-methylhexane]
6,99.5 °C,CCCCCCCC(Cl)CCCC (centres undefined) [5-Chlorododecane]
7,52.6 °C,CCCCCC(Cl)CC (centres undefined) [3-Chlorooctane]
8,39.2 °C,CCCC(Cl)CCC [4-Chloroheptane]
9,10 °C,CCC(Cl)CC [3-Chloropentane]

# Remark: another data set of the same source
row,SMILES,flash point
1,C[N](C)[Ga]([N](C)C)[N](C)C [TRIS(DIMETHYLAMINO)GALLIUM],56.00 °C
2,CCCC[O-].CCCC[O-].CCCC[O-].CCCC[O-].CCCC[O-].[Nb+5] [NIOBIUM(V) n-BUTOXIDE],90.00 °C
3,CCCC[O-].CCCC[O-].CCCC[O-].CCCC[O-].CCCC[O-].[Ta+5] [TANTALUM(V) n-BUTOXIDE],66.00 °C
4,CC(C)[O-].CC(C)[O-].CCOC(=O)CC(C)=O.[Al+2] [ALUMINUM DIISOPROPOXIDE ETHYLACETOACETATE],50.00 °C
5,CC[N-]CC.CC[N-]CC.CC[N-]CC.CC[N-]CC.[Ti+4] [TITANIUM TETRAKIS(DIETHYLAMIDE)],37.00 °C
6,CCCC[O-].CCCC[O-].CCCC[O-].[Sb+3] [ANTIMONY(III) n-BUTOXIDE],68.00 °C
7,c1ccc(P(c2ccccc2)c2ccccc2)cc1 [TRIPHENYLPHOSPHINE],182.00 °C
8,C1CCC(PC2CCCCC2)CC1 [DICYCLOHEXYLPHOSPHINE],110.00 °C

# The remaining lines, values ahead:
row,flash point,SMILES
1,45.00 °C,CCC[O-].CCC[O-].CCC[O-].CCC[O-].[Ti+4] [TITANIUM n-PROPOXIDE]
2,25.00 °C,CC(C)[O-].CC(C)[O-].CC(C)[O-].CC(C)[O-].[Ti+4] [TITANIUM ISOPROPOXIDE]
3,102.00 °C,CC(C)(C)CCCCCC(=O)[O-].[Ag+] [SILVER NEODECANOATE]
4,-1.00 °C,[CH3][Ga]([CH3])[CH3] [TRIMETHYLGALLIUM]
5,5.00 °C,CC(C)[O][Al]([CH3])[CH3] [DIMETHYLISOPROPOXYALUMINUM]
6,118.00 °C,CCCCCCCCCCCCCC[P+](CCCCCC)(CCCCCC)CCCCCC.[Cl-] [TETRADECYL(TRIHEXYL)PHOSPHONIUM CHLORIDE]
7,-18.00 °C,[CH3][Al]([CH3])[Cl] [DIMETHYLALUMINUM CHLORIDE]
8,10.00 °C,CC[N-]C.CC[N-]C.CC[N-]C.CC[N-]C.[Ti+4] [TITANIUM TETRAKIS(ETHYLMETHYLAMIDE)]
9,22.00 °C,CC(C)[O-].CC(C)[O-].CC(C)[O-].[Cl-].[Ti+4] [TITANIUM CHLORIDE TRIISOPROPOXIDE]
10,260.00 °C,CCCCN(CCCC)C(=S)[S-].CCCCN(CCCC)C(=S)[S-].[Ni+2] [NICKEL DI-n-BUTYLDITHIOCARBAMATE]

# Remark: another data set of the same source
row,flash point,SMILES
1,37.00 °C,[CH3][Ge]([CH3])([CH3])[Br] [TRIMETHYLBROMOGERMANE]
2,160.00 °C,[Cl][Ge]([Cl])([c]1ccccc1)[c]1ccccc1 [DIPHENYLDICHLOROGERMANE]
3,32.00 °C,C=[CH][Ge]([CH2]C)([CH2]C)[CH2]C [VINYLTRIETHYLGERMANE]
4,104.00 °C,c1cc[c]([GeH2][c]2ccccc2)cc1 [DIPHENYLGERMANE]
5,10.00 °C,[CH3][Ge]([Cl])([Cl])[Cl] [METHYLTRICHLOROGERMANE]
6,51.00 °C,C[CH2][Ge]([Cl])([Cl])[Cl] [ETHYLTRICHLOROGERMANE]
7,14.00 °C,[CH3][Ge]([CH3])([CH3])[Ge]([CH3])([CH3])[CH3] [HEXAMETHYLDIGERMANE]
8,34.00 °C,C[C](C)(C)[Ge]([CH3])([CH3])[Cl] [t-BUTYLDIMETHYLCHLOROGERMANE]
9,34.00 °C,C[N](C)[Ge]([N](C)C)([N](C)C)[N](C)C [TETRAKIS(DIMETHYLAMINO)GERMANE]
10,1.00 °C,C=C[CH2][Ge]([CH3])([CH3])[CH3] [ALLYLTRIMETHYLGERMANE]
11,34.00 °C,C[O][Ge]([O]C)([O]C)[O]C [TETRAMETHOXYGERMANE]
12,51.00 °C,[CH3][Ge]([CH3])([CH2]Cl)[CH2]Cl [BIS(CHLOROMETHYL)DIMETHYLGERMANE]
13,107.00 °C,CCC[CH2][Ge]([Cl])([Cl])[CH2]CCC [DI-n-BUTYLDICHLOROGERMANE]
14,63.00 °C,C=C(C)C(=O)O[CH2][Ge]([CH3])([CH3])[CH3] [METHACRYLOXYMETHYLTRIMETHYLGERMANE]
15,42.00 °C,C[CH2][Ge]([CH2]C)([CH2]C)[CH2]C [TETRAETHYLGERMANE]

row,SMILES,flash point
1,CCCC[O][Ge]([O]CCCC)([O]CCCC)[O]CCCC [TETRA-n-BUTOXYGERMANE],112.00 °C

# Remark: another data set of the same source
row,flash point,SMILES
1,-10.00 °C,CC[Si](Cl)(Cl)Cl [Ethyltrichlorosilane]
2,-18.6 °C,"CN(C)[Si](C)(C)C [(N,N-Dimethylamino)trimethylsilane]"

# Remark: another data set of the same source
row,SMILES,flash point
1,CCC[CH2][Sn]([CH2]CCC)([CH2]CCC)[c]1cccs1 [2-THIENYLTRI-n-BUTYLTIN],106.00 °C
2,C[Si](C)(C)[N]([Sn][N]([Si](C)(C)C)[Si](C)(C)C)[Si](C)(C)C [BIS[BIS(TRIMETHYLSILYL)AMINO]TIN(II)],56.00 °C
3,CCC[CH2][Sn]([CH2]CCC)([CH2]CCC)[S]c1ccccc1 [PHENYLTHIOTRI-n-BUTYLTIN],104.00 °C
4,C=[CH][Sn]([CH]=C)([CH]=C)[CH]=C [TETRAVINYLTIN],40.00 °C
5,CCC[CH2][Sn]([C]#Cc1ccccc1)([CH2]CCC)[CH2]CCC [PHENYLETHYNYLTRI-n-BUTYLTIN],113.00 °C
6,C=C[CH2][Sn]([CH2]C=C)([CH2]C=C)[CH2]C=C [TETRAALLYLTIN],75.00 °C
7,CC[N](CC)[Sn]([N](CC)CC)([N](CC)CC)[N](CC)CC [TETRAKIS(DIETHYLAMINO)TIN],39.00 °C
8,C=C[CH2][Sn]([CH2]CCC)([CH2]CCC)[CH2]CCC [ALLYLTRI-n-BUTYLTIN],103.00 °C
9,CCC[CH2][Sn]([CH2]CCC)([CH2]CCC)[O]C [TRI-n-BUTYLMETHOXYTIN],98.00 °C
10,C[CH2][Sn]([CH2]C)([CH2]C)[CH2]C [TETRAETHYLTIN],53.00 °C
11,CCCCCCC[CH2][Sn]([Cl])([Cl])[CH2]CCCCCCC [DIOCTYLDICHLOROTIN],204.00 °C
12,CCC[CH2][Sn]([Cl])([Cl])[CH2]CCC [DI-n-BUTYLDICHLOROTIN],168.00 °C
13,C=[C](OCC)[Sn]([CH2]CCC)([CH2]CCC)[CH2]CCC [1-ETHOXYVINYLTRI-n-BUTYLTIN],113.00 °C
14,[CH3][Sn]([CH3])([CH3])[CH2]Cl [CHLOROMETHYLTRIMETHYLTIN],39.00 °C
15,[Cl][Sn]([c]1ccccc1)([c]1ccccc1)[c]1ccccc1 [TRIPHENYLCHLOROTIN],70.00 °C
16,C=[CH][Sn]([Cl])([Cl])[CH]=C [DIVINYLDICHLOROTIN],204.00 °C
17,CCC[CH2][Sn]([CH2]CCC)([CH2]CCC)[N](C)C [DIMETHYLAMINOTRI-n-BUTYLTIN],115.00 °C
